Laboratory results as given in the supplement of paper PMC10307832.

Key:
Experiment in all cases: relative viability (nuclei count vs DMSO), 5 days (fraction); higher = more cells survive
[1] = test system: 201T
Summary of the method: (§1)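 Relative viability was taken as the ratio of nuclei in treated wells to nuclei in vehicle wells. Lung cancer cell lines in 1536-well plates received compounds by pin tool one day after seeding, either one drug alone or a fixed anchor-drug dose plus five library-drug doses (not always all listed) in √10 steps. Nuclei were counted on 4× images after 5 days of treatment, and values are medians of duplicate plates.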

[2] = test system: BEN
Summary of the method: as §1

[3] = test system: COR-L 105
Summary of the method: as §1

[4] = test system: EKVX
Summary of the method: as §1

[5] = test system: EPLC-272H
Summary of the method: as §1

[6] = test system: H3255
Summary of the method: as §1

[7] = test system: HCC-827
Summary of the method: as §1

[8] = test system: LCLC-97TM1
Summary of the method: as §1

[9] = test system: LOU-NH91
Summary of the method: as §1

[10] = test system: LU99A
Summary of the method: as §1

[11] = test system: NCI-H1437
Summary of the method: as §1

[12] = test system: NCI-H1666
Summary of the method: as §1

[13] = test system: NCI-H1975
Summary of the method: as §1

[14] = test system: NCI-H2085
Summary of the method: as §1

[15] = test system: NCI-H2087
Summary of the method: as §1

[16] = test system: NCI-H2170
Summary of the method: as §1

[17] = test system: NCI-H2342
Summary of the method: as §1

[18] = test system: NCI-H647
Summary of the method: as §1

[19] = test system: NCI-H650
Summary of the method: as §1

[20] = test system: PC-3 [JPC-3]
Summary of the method: as §1

[21] = test system: SW 1573
Summary of the method: as §1

CC(=O)O[C@@]12CO[C@@H]1C[C@H](O)[C@@]1(C)C(=O)[C@H](O)C3=C(C)[C@@H](OC(=O)[C@H](O)[C@@H](NC(=O)OC(C)(C)C)c4ccccc4)C[C@@](O)([C@@H](OC(=O)c4ccccc4)[C@H]21)C3(C)C [Docetaxel] + COc1cc2c(Oc3ccc(NC(=O)C4(C(=O)Nc5ccc(F)cc5)CC4)cc3F)ccnc2cc1OCCCN1CCOCC1 [Foretinib] (partner 0.25 µM)
relative viability ([1]; first compound 0.0002 µM): 1.15 | relative viability ([1]; first compound 0.000632 µM): 0.712 | relative viability ([1]; first compound 0.002 µM): 0.473 | relative viability ([1]; first compound 0.006325 µM): 0.29 | relative viability ([1]; first compound 0.02 µM): 0.213 | relative viability ([2]; first compound 0.0002 µM): 0.625 | relative viability ([2]; first compound 0.000632 µM): 0.926 | relative viability ([2]; first compound 0.002 µM): 0.606 | relative viability ([2]; first compound 0.006325 µM): 0.285 | relative viability ([2]; first compound 0.02 µM): 0.197 | relative viability ([3]; first compound 0.0002 µM): 0.986 | relative viability ([3]; first compound 0.000632 µM): 0.95 | relative viability ([3]; first compound 0.002 µM): 0.487 | relative viability ([3]; first compound 0.006325 µM): 0.475 | relative viability ([3]; first compound 0.02 µM): 0.331 | relative viability ([4]; first compound 0.0002 µM): 1.07 | relative viability ([4]; first compound 0.000632 µM): 0.887 | relative viability ([4]; first compound 0.002 µM): 0.411 | relative viability ([4]; first compound 0.006325 µM): 0.234 | relative viability ([4]; first compound 0.02 µM): 0.13 | relative viability ([5]; first compound 0.0002 µM): 0.7 | relative viability ([5]; first compound 0.000632 µM): 0.278 | relative viability ([5]; first compound 0.002 µM): 0.249 | relative viability ([5]; first compound 0.006325 µM): 0.0711 | relative viability ([5]; first compound 0.02 µM): 0.0667 | relative viability ([6]; first compound 0.0002 µM): 0.889 | relative viability ([6]; first compound 0.000632 µM): 0.909 | relative viability ([6]; first compound 0.002 µM): 0.66 | relative viability ([6]; first compound 0.006325 µM): 0.335 | relative viability ([6]; first compound 0.02 µM): 0.266 | relative viability ([7]; first compound 0.0002 µM): 1.03 | relative viability ([7]; first compound 0.000632 µM): 1 | relative viability ([7]; first compound 0.002 µM): 0.771 | relative viability ([7]; first compound 0.006325 µM): 0.362 | relative viability ([7]; first compound 0.02 µM): 0.291 | relative viability ([8]; first compound 0.0002 µM): 0.846 | relative viability ([8]; first compound 0.000632 µM): 0.641 | relative viability ([8]; first compound 0.002 µM): 0.697 | relative viability ([8]; first compound 0.006325 µM): 0.218 | relative viability ([8]; first compound 0.02 µM): 0.146 | relative viability ([9]; first compound 0.0002 µM): 0.936 | relative viability ([9]; first compound 0.000632 µM): 0.864 | relative viability ([9]; first compound 0.002 µM): 0.564 | relative viability ([9]; first compound 0.006325 µM): 0.334 | relative viability ([9]; first compound 0.02 µM): 0.284 | relative viability ([10]; first compound 0.0002 µM): 0.718 | relative viability ([10]; first compound 0.000632 µM): 0.794 | relative viability ([10]; first compound 0.002 µM): 0.486 | relative viability ([10]; first compound 0.006325 µM): 0.393 | relative viability ([10]; first compound 0.02 µM): 0.259 | relative viability ([11]; first compound 0.0002 µM): 1.12 | relative viability ([11]; first compound 0.000632 µM): 1.21 | relative viability ([11]; first compound 0.002 µM): 0.351 | relative viability ([11]; first compound 0.006325 µM): 0.273 | relative viability ([11]; first compound 0.02 µM): 0.188 | relative viability ([12]; first compound 0.0002 µM): 0.853 | relative viability ([12]; first compound 0.000632 µM): 0.628 | relative viability ([12]; first compound 0.002 µM): 0.633 | relative viability ([12]; first compound 0.006325 µM): 0.614 | relative viability ([12]; first compound 0.02 µM): 0.372 | relative viability ([13]; first compound 0.0002 µM): 0.907 | relative viability ([13]; first compound 0.000632 µM): 0.586 | relative viability ([13]; first compound 0.002 µM): 0.353 | relative viability ([13]; first compound 0.02 µM): 0.105 | relative viability ([14]; first compound 0.0002 µM): 0.852 | relative viability ([14]; first compound 0.000632 µM): 0.965 | relative viability ([14]; first compound 0.002 µM): 0.568 | relative viability ([14]; first compound 0.006325 µM): 0.34 | relative viability ([14]; first compound 0.02 µM): 0.414 | relative viability ([15]; first compound 0.0002 µM): 0.955 | relative viability ([15]; first compound 0.000632 µM): 0.477 | relative viability ([15]; first compound 0.002 µM): 0.249 | relative viability ([15]; first compound 0.006325 µM): 0.115 | relative viability ([15]; first compound 0.02 µM): 0.105 | relative viability ([16]; first compound 0.0002 µM): 0.995 | relative viability ([16]; first compound 0.000632 µM): 0.962 | relative viability ([16]; first compound 0.002 µM): 0.754 | relative viability ([16]; first compound 0.006325 µM): 0.232 | relative viability ([16]; first compound 0.02 µM): 0.203 | relative viability ([17]; first compound 0.0002 µM): 1.17 | relative viability ([17]; first compound 0.000632 µM): 0.948 | relative viability ([17]; first compound 0.002 µM): 0.638 | relative viability ([17]; first compound 0.006325 µM): 0.661 | relative viability ([17]; first compound 0.02 µM): 0.502 | relative viability ([18]; first compound 0.0002 µM): 1.25 | relative viability ([18]; first compound 0.000632 µM): 1.06 | relative viability ([18]; first compound 0.002 µM): 0.179 | relative viability ([18]; first compound 0.006325 µM): 0.182 | relative viability ([18]; first compound 0.02 µM): 0.111 | relative viability ([19]; first compound 0.0002 µM): 0.958 | relative viability ([19]; first compound 0.000632 µM): 0.921 | relative viability ([19]; first compound 0.002 µM): 0.299 | relative viability ([19]; first compound 0.006325 µM): 0.277 | relative viability ([19]; first compound 0.02 µM): 0.218 | relative viability ([20]; first compound 0.0002 µM): 0.962 | relative viability ([20]; first compound 0.000632 µM): 0.945 | relative viability ([20]; first compound 0.002 µM): 0.544 | relative viability ([20]; first compound 0.006325 µM): 0.179 | relative viability ([20]; first compound 0.02 µM): 0.149 | relative viability ([21]; first compound 0.0002 µM): 0.719 | relative viability ([21]; first compound 0.000632 µM): 1.06 | relative viability ([21]; first compound 0.002 µM): 0.342 | relative viability ([21]; first compound 0.006325 µM): 0.193 | relative viability ([21]; first compound 0.02 µM): 0.2
